# Laboratory results reported in US6818203B2, “Use of perfluoroalkyl-containing metal complexes as contrast media in MR-imaging for visualization of plaque, tumors and necroses” (Schering Aktiengesellschaft, priority 2000, dated 2004).
# Legend:
# Assay type in all cases: physicochemical
# [1] = critical micelle formation concentration (CMC) by tensiometry
# Description: In aqueous systems, these amphiphilic molecules show the properties that are characteristic of standard surfactants (such as, e.g., sodium dodecylsulfate, SDS). They thus reduce the surface tension of water. By tensiometry, the so-called CMC (critical micelle formation concentration in mol/l) can be determined. In this respect, the surface tension is determined based on the concentration of the substance to be measured. The CMC can be calculated from the plot of the surface tension function (c) that is obtained. The critical micelle formation concentration of the compounds according to the invention must be <10^−3 mol/l, preferably <10^−4 mol/l.
# (§1) Both the determination of the CMC and the photon correlation spectroscopy are described in H.-D. Dörfler, “Grenzflächen- und Kolloidchemie [Interface and Colloid Chemistry],” Weinheim, New York, Basel, Cambridge, Tokyo, VSH 1994.
# [2] = proton relaxivity in plasma (R^1), Minispec P 20; conditions: 40° C., 0.47 tesla, bovine plasma
# Description: As a third criterion, the proton-relaxivity in plasma (R^1) at 40° C. and a field strength of 0.47 tesla is used. The relaxivity, which is indicated in [l/mmol·s], is the quantitative measurement for the shortening of relaxation time T^1 of the protons. For the purpose according to the invention, the relaxivity must be as high as possible and >10 l/mmol·s, preferably >13 l/mmol·s, especially preferably >15 l/mmol·s.
# Relaxivity R^1 [l/mmol·s] of the MR-contrast media according to the invention was determined with the Minispec P 20 device of the Bruker Company. The measurements were taken at 40° C. and a field strength of 0.47 tesla. Eight measuring points were recorded by each T1-sequence: 180°-TI-90°, inversion recovery. As a medium, bovine plasma of the Kraeber Company was used. The contrast medium concentrations [mmol/l] in the batches were between 0.30 and 1.16.
# [3] = hydrodynamic micelle diameter (2 Rh) by photon correlation spectroscopy (PCS)
# From the text: The amphiphilic compounds according to the invention are combined in solution and are present as aggregates. The size (2 Rh) of such aggregates (e.g., micelles, rods, wafers, etc.) can be determined with the aid of […] (PCS).
# As a second criterion, the hydrodynamic micelle diameter 2 Rh, which must be >1 nm, is therefore used. Those perfluoroalkyl-containing metal complexes according to the invention whose 2 RH is ≧3, quite especially preferably >4 nm, are especially suitable.
# as §1
CMC (critical micelle formation concentration) [1] [mol/L],R^1 Plasma (relaxivity) [2] [mmol⁻¹ s⁻¹],2 Rh (hydrodynamic micelle diameter) [3] [nm],Structure (SMILES)
2.3e-05,33,14,"O=C([O-])CN1CCN(CC(=O)[O-])CCN(CC(O)CNC(=O)COCCC(F)(F)C(F)(F)C(F)(F)C(F)(F)C(F)(F)C(F)(F)C(F)(F)C(F)(F)F)CCN(CC(=O)[O-])CC1.[Gd+3] (stereo not drawn) [metal complex II, Gadolinium complex of 10-[2-hydroxy-4-aza-5-oxo-7-oxa-10,10,11,11,12,12,13,13,14,14,15,15,16,16,17,17-heptadecafluoroheptadecyl]-1,4,7-tris (carboxymethyl)-1,4,7,10-tetraazacyclododecane]"
1e-06,29.7,31.5,"CCN(CC(=O)NCC(O)CN1CCN(CC(=O)[O-])CCN(CC(=O)[O-])CCN(CC(=O)[O-])CC1)S(=O)(=O)C(F)(F)C(F)(F)C(F)(F)C(F)(F)C(F)(F)C(F)(F)C(F)(F)C(F)(F)F.[Gd+3] (stereo not drawn) [metal complex IV, Gadolinium complex of 10-[2-hydroxy-4-aza-5-oxo-7-aza-7-(perfluorooctyl-sulfonyl)-nonyl]-1,4,7-tris (carboxymethyl)-1,4,7,10-tetraazacyclododecane]"
2.65e-06,13.3,6.0,CC(C(=O)NCC(=O)NCCOCCOCCOCCCNC(=O)COCCC(F)(F)C(F)(F)C(F)(F)C(F)(F)C(F)(F)C(F)(F)C(F)(F)C(F)(F)F)N1CCN(CC(=O)[O-])CCN(CC(=O)[O-])CCN(CC(=O)[O-])CC1.[Gd+3] (stereo not drawn) [metal complex IX]
1.44e-05,27.5,3.2,"O=C([O-])CN1CCN(CC(=O)[O-])CCN(CC(O)COCCC(F)(F)C(F)(F)C(F)(F)C(F)(F)C(F)(F)C(F)(F)C(F)(F)C(F)(F)F)CCN(CC(=O)[O-])CC1.[Gd+3] (stereo not drawn) [metal complex VI, Gadolinium complex of 10-[2-hydroxy-4-oxa-1H,1H,2H,2H,3H,3H,5H,5H,6H,6H-perfluorotetradecyl]-1,4,7-tris(carboxymethyl)-1,4,7,10-tetraazacyclododecane]"
2.92e-05,21.2,25,CC(C(=O)NCC(=O)N(CCOCCO)CCOCCC(F)(F)C(F)(F)C(F)(F)C(F)(F)C(F)(F)C(F)(F)C(F)(F)C(F)(F)F)N1CCN(CC(=O)[O-])CCN(CC(=O)[O-])CCN(CC(=O)[O-])CC1.[Gd+3] (stereo not drawn) [metal complex VIII]
5.2e-05,30.3,3.0,COCCOCCOCCOCCOCCN(CCOCCC(F)(F)C(F)(F)C(F)(F)C(F)(F)C(F)(F)C(F)(F)C(F)(F)C(F)(F)F)C(=O)CNC(=O)C(C)N1CCN(CC(=O)[O-])CCN(CC(=O)[O-])CCN(CC(=O)[O-])CC1.[Gd+3] (stereo not drawn) [metal complex VII]
2.88e-06,24.8,35.5,"O=C([O-])CN1CCN(CC(=O)[O-])CCN(CC(O)CNC(=O)COCCC(F)(F)C(F)(F)C(F)(F)C(F)(F)C(F)(F)C(F)(F)C(F)(F)C(F)(F)C(F)(F)C(F)(F)F)CCN(CC(=O)[O-])CC1.[Gd+3] (stereo not drawn) [metal complex XI, Gadolinium complex of 10-[2-hydroxy-4-aza-5-oxo-7-oxa-10,10,11,11,12,12,13,13,14,14,15,15,16,16,17,17,18,18,19,19-henicosafluoro-nonadecyl]-1,4,7-tris(carboxymethyl)-1,4,7,10-tetraazacyclododecane]"
